Assay results as given in US7696374B2, “Arylalklcarbamate derivatives, preparation method thereof and use of same in therapeutics” (Sanofi-Aventis, priority 2003, dated 2010).

SMILES: COc1ccc(OC(=O)NCc2ccc(Oc3ccccc3)cc2)cc1
- melting point: 89 to 91 °C

SMILES: Cc1ccc(OC(=O)NCCc2ccc(-c3ccccc3)cc2)cc1
- melting point: 172 to 174 °C

SMILES: O=C(NCc1ccc(-c2ccccc2)cc1)Oc1ccc(F)cc1
- melting point: 155 to 157 °C

SMILES: O=C(NCc1ccc(-c2ccccc2)cc1)OCC(F)(F)F [Compound No. 1, 2,2,2-Trifluoroethyl 1,1′-biphenyl-4-ylmethylcarbamate]
- melting point: 123 to 125 °C

SMILES: O=C(NCc1ccc(Oc2ccccc2)cc1)OCC(F)(F)F [Compound No. 10, 2,2,2-Trifluoroethyl 4-phenyloxybenzylcarbamate]
- melting point: 145 to 148 °C

SMILES: O=C(NCCc1ccc(-c2ccccc2)cc1)OCC(F)(F)F [Compound No. 19, 2,2,2-Trifluoroethyl 2-(1,1′-biphenyl-4-yl)ethylcarbamate]
- melting point: 79 to 81 °C
